Experimental data: the supplement of paper PMC4862054

Tests used:
Conditions in all cases: incubation time: 72 h
[1] = tested on: BT-549; assay: normalised viability (% of control), CellTiter-Blue; higher = more viable cells (about 100 = DMSO control)
Summary of the method: (§1)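 Plates were quality-checked by Z'-factor and normalised to vehicle (100) and a positive kill control (0). The underlying assay incubated breast cancer cell lines for 72 h on 384-well plates with compound, then added 2.5 µl CellTiter-Blue for 2 h at 37 °C and read at 560/590 nm. The value is normalised viability at a single listed concentration of the series.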

[2] = tested on: CAL-120; assay: as above
Summary of the method: as §1

[3] = tested on: CAL-148; assay: as above
Summary of the method: as §1

[4] = tested on: MDA-MB-231; assay: as above
Summary of the method: as §1

[5] = tested on: MDA-MB-453; assay: as above
Summary of the method: as §1

[6] = tested on: MDA-MB-468; assay: as above
Summary of the method: as §1

[7] = tested on: SK-BR-3; assay: as above
Summary of the method: as §1

[8] = tested on: BT-474; assay: drug sensitivity score (DSS), CellTiter-Blue viability (DSS (AUC-based score)); higher = stronger viability inhibition; extreme values may be limits of the assay
Protocol: (§2)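 DSRT with the CellTiter-Blue (resazurin reduction) viability readout, fluorescence 560/590 nm, 72 h incubation. Plates were normalised to DMSO and benzethonium chloride controls. DSS is computed from the area under the fitted dose-response curve (5 or 9 concentrations).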

[9] = tested on: BT-549; assay: as above
Protocol: as §2

[10] = tested on: CAL-120; assay: as above
Protocol: as §2

[11] = tested on: CAL-148; assay: as above
Protocol: as §2

[12] = tested on: CAL-51; assay: as above
Protocol: as §2

[13] = tested on: CAL-85-1; assay: as above
Protocol: as §2

[14] = tested on: DU-4475; assay: as above
Protocol: as §2

[15] = tested on: HCC1143; assay: as above
Protocol: as §2

[16] = tested on: HCC1599; assay: as above
Protocol: as §2

[17] = tested on: HCC1937; assay: as above
Protocol: as §2

[18] = tested on: HDQ-P1; assay: as above
Protocol: as §2

[19] = tested on: Hs578T; assay: as above
Protocol: as §2

[20] = tested on: MDA-MB-231; assay: as above
Protocol: as §2

[21] = tested on: MDA-MB-436; assay: as above
Protocol: as §2

[22] = tested on: MDA-MB-453; assay: as above
Protocol: as §2

[23] = tested on: MDA-MB-468; assay: as above
Protocol: as §2

[24] = tested on: MFM-223; assay: as above
Protocol: as §2

[25] = tested on: SK-BR-3; assay: as above
Protocol: as §2

COc1ccc(-c2cc3c(C)nc(N)nc3n([C@H]3CC[C@H](OCCO)CC3)c2=O)cn1
normalised viability [%]
Conditions	[1]	[2]	[3]	[4]	[5]	[6]	[7]
3 nM	–	–	87.6	–	103	–	–
10 nM	86.3	107	–	84.7	–	92.7	82.6
30 nM	–	–	93	–	66.5	–	–
100 nM	–	–	78.6	–	48.5	–	–
1000 nM	19.1	21	–	16.7	–	21.5	10.6
10000 nM	6.84	11.3	–	8.35	–	6.53	6.34

Conditions	drug sensitivity score
[8]	19.6
[9]	19.1
[10]	17.7
[11]	18.3
[12]	21.2
[13]	16.7
[14]	13.7
[15]	13.8
[16]	16.2
[17]	18.2
[18]	22.5
[19]	20.1
[20]	19.9
[21]	17.9
[22]	24.6
[23]	17.2
[24]	19.1
[25]	24.9

Cc1cccc(-c2nn3c(c2-c2ccnc4ccc(C(N)=O)cc24)CCC3)n1
normalised viability [%]
Conditions	[1]	[2]	[3]	[4]	[5]	[6]	[7]
0.3 nM	–	–	93.4	–	122	–	–
1 nM	93.8	97.9	–	109	–	106	116
3 nM	–	–	95.2	–	108	–	–
10 nM	–	–	92.9	–	97.2	–	–
100 nM	98.3	92.8	–	128	–	120	101
1000 nM	109	106	–	111	–	105	103

Conditions	drug sensitivity score
[8]	0
[9]	0
[10]	0
[11]	0
[12]	0
[13]	0
[14]	0
[15]	0
[16]	0
[17]	0
[18]	0
[19]	0
[20]	0
[21]	0
[22]	0
[23]	0
[24]	0
[25]	0

Cn1cc(CNCC2CCN(c3ncc(C(=O)NO)cn3)CC2)c2ccccc21
normalised viability [%]
Conditions	[1]	[2]	[3]	[4]	[5]	[6]	[7]
0.3 nM	–	–	95.6	–	113	–	–
1 nM	78	88.7	–	103	–	107	86.2
3 nM	–	–	89.2	–	63.6	–	–
10 nM	–	–	53.9	–	25.8	–	–
100 nM	75.1	12.5	–	17.7	–	38	8.01
1000 nM	12	3.89	–	5.23	–	14.5	2.99

Conditions	drug sensitivity score
[8]	19.9
[9]	8.2
[10]	20.2
[11]	22.6
[12]	13.7
[13]	19.1
[14]	21.1
[15]	18.9
[16]	16.5
[17]	16.5
[18]	16.5
[19]	13.1
[20]	15
[21]	5.46
[22]	27.8
[23]	14.1
[24]	14.9
[25]	25.8

O=C(NC[C@H](O)CO)c1ccncc1Nc1ccc(I)cc1F
normalised viability [%]
Conditions	[1]	[2]	[3]	[4]	[5]	[6]	[7]
3 nM	–	–	86	–	99.6	–	–
10 nM	93.2	85.1	–	75.5	–	97.7	98.4
30 nM	–	–	86.4	–	89.2	–	–
100 nM	–	–	82.7	–	90.9	–	–
1000 nM	88.6	55.7	–	31.7	–	85.7	102
10000 nM	88	43.1	–	31.4	–	60.7	55.5

Conditions	drug sensitivity score
[8]	0
[9]	0
[10]	7.78
[11]	3.49
[12]	3.9
[13]	6.9
[14]	35.2
[15]	13.8
[16]	4.05
[17]	0
[18]	10.3
[19]	0
[20]	21.9
[21]	0
[22]	4.94
[23]	0
[24]	0
[25]	0

Nc1nc(=O)c2c([nH]1)NCC(CNc1ccc(C(=O)N[C@@H](CCC(=O)O)C(=O)O)cc1)N2C=O (mixture of isomers) [Folinic acid]
normalised viability [%]
Conditions	[1]	[2]	[3]	[4]	[5]	[6]	[7]
0.297 nM	–	–	92.2	–	110	–	–
0.99 nM	100	105	–	100	–	115	95.3
2.97 nM	–	–	88.9	–	109	–	–
9.9 nM	–	–	96.6	–	103	–	–
99 nM	105	110	–	123	–	107	98.6
990 nM	102	108	–	118	–	115	116

Conditions	drug sensitivity score
[8]	0
[9]	0
[10]	0
[11]	0
[12]	0
[13]	0
[14]	0
[15]	0
[16]	0
[17]	0
[18]	0
[19]	0
[20]	0
[21]	0
[22]	0
[23]	0
[24]	0
[25]	0

O=C(Nc1c[nH]nc1-c1nc2ccc(CN3CCOCC3)cc2[nH]1)NC1CC1 [AT9283]
normalised viability [%]
Conditions	[1]	[2]	[3]	[4]	[5]	[6]	[7]
3 nM	–	–	80	–	99.2	–	–
10 nM	95.8	84.9	–	87.5	–	108	93.9
30 nM	–	–	69	–	60.1	–	–
100 nM	–	–	31.8	–	54.7	–	–
1000 nM	46.7	22.1	–	43.3	–	43.1	40.3
10000 nM	4.31	6.61	–	5.14	–	6.32	6.9

Conditions	drug sensitivity score
[8]	8.49
[9]	12.2
[10]	18.6
[11]	7.72
[12]	14
[13]	10
[14]	22.7
[15]	9.48
[16]	7.51
[17]	15.4
[18]	12.4
[19]	16.4
[20]	13.2
[21]	8.22
[22]	17.4
[23]	22.4
[24]	12.4
[25]	17.5

COc1cc(CCc2cc(NC(=O)c3ccc(N4CC(C)NC(C)C4)cc3)n[nH]2)cc(OC)c1 (stereo unspecified) [AZD4547]
normalised viability [%]
Conditions	[1]	[2]	[3]	[4]	[5]	[6]	[7]
0.3 nM	–	–	97.9	–	119	–	–
1 nM	89.1	86	–	110	–	113	112
3 nM	–	–	93.7	–	91.5	–	–
10 nM	–	–	89.7	–	95.8	–	–
100 nM	105	80.4	–	105	–	105	113
1000 nM	112	65.1	–	113	–	105	105

Conditions	drug sensitivity score
[8]	0
[9]	0
[10]	0
[11]	2.37
[12]	2.97
[13]	3.12
[14]	3.06
[15]	0
[16]	6.62
[17]	0
[18]	0
[19]	0
[20]	0
[21]	0
[22]	5.67
[23]	0
[24]	15.1
[25]	0

CCC/C=C/C=C/C(=O)O[C@H]1/C(=C/C(=O)OC)C[C@H]2C[C@H]([C@@H](C)O)OC(=O)C[C@H](O)C[C@@H]3C[C@H](OC(C)=O)C(C)(C)[C@](O)(C[C@@H]4C/C(=C/C(=O)OC)C[C@H](/C=C/C(C)(C)[C@]1(O)O2)O4)O3 [Bryostatin 1]
Conditions	normalised viability [%]
[1], 0.1 nM	100
[1], 10 nM	87.9
[1], 100 nM	100
[2], 0.1 nM	90.7
[2], 10 nM	89.1
[2], 100 nM	93.4
[3], 0.03 nM	91.6
[3], 0.3 nM	101
[3], 1 nM	88
[4], 10 nM	101
[4], 1000 nM	82.8
[4], 10000 nM	90.2
[5], 0.03 nM	105
[5], 0.3 nM	95
[5], 1 nM	94.8
[6], 10 nM	99.6
[6], 1000 nM	104
[6], 10000 nM	94.4
[7], 10 nM	95
[7], 1000 nM	67
[7], 10000 nM	61.4

Conditions	drug sensitivity score
[8]	0
[9]	0
[10]	0
[11]	16.1
[12]	0
[13]	7.23
[14]	0
[15]	6.66
[16]	16.1
[17]	0
[18]	0
[19]	0
[20]	0
[21]	0
[22]	0
[23]	0
[24]	0
[25]	4.97

CO[C@@H](C(=O)N1Cc2[nH]nc(NC(=O)c3ccc(N4CCN(C)CC4)cc3)c2C1)c1ccccc1 [Danusertib]
normalised viability [%]
Conditions	[1]	[2]	[3]	[4]	[5]	[6]	[7]
3 nM	–	–	92.5	–	101	–	–
10 nM	97.9	80.7	–	87.9	–	107	81
30 nM	–	–	85.5	–	62.1	–	–
100 nM	–	–	29.7	–	47.9	–	–
1000 nM	64.3	46	–	56.7	–	36.2	73.5
10000 nM	16.2	8.24	–	19.2	–	48.1	77

Conditions	drug sensitivity score
[8]	0
[9]	9.37
[10]	10.5
[11]	13.2
[12]	13.4
[13]	10.7
[14]	14.2
[15]	8.76
[16]	6.9
[17]	10.8
[18]	14.3
[19]	11.3
[20]	11
[21]	4.87
[22]	18.4
[23]	15.5
[24]	0
[25]	0
